Test results as given in US9055743B2, “Alpha, beta-unsaturated imines” (BAYER INTELLECTUAL PROPERTY GMBH, priority 2010, dated 2015).

Key:
[1] = tested on: Lucilia cuprina larvae; experiment: Lucilia cuprina test (LUCICU); assay type: in vivo; details: 100 ppm, after 2 days
Description: Lucilia cuprina Test (LUCICU)
(§1) Solvent: Dimethyl Sulphoxide
To produce a suitable preparation of active compound, 10 mg of active compound are mixed with 0.5 ml of dimethyl sulphoxide and the concentrate is diluted with water to the desired concentration. Vessels containing horsemeat treated with the active compound preparation of the desired concentration are populated with about 20 Lucilia cuprina larvae.
After 2 days, the kill in % is determined. 100% means that all larvae have been killed; 0% means that none of the larvae have been killed.

[2] = tested on: green peach aphid (Myzus persicae); experiment: Myzus test (MYZUPE spray treatment); assay type: in vivo; details: 500 g/ha, spray, after 6 days
How it was run: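 Chinese cabbage leaf discs infested with all aphid stages were sprayed with compound in acetone/DMF with emulsifier, diluted in emulsifier-containing water. Mortality in % assessed after 6 days (100% = all aphids killed).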

[3] = tested on: larvae of the mustard beetle (Phaedon cochleariae); experiment: Phaedon test (PHAECO spray treatment); assay type: in vivo; details: 500 g/ha, spray, after 7 days
How it was run: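 Chinese cabbage leaf discs sprayed with compound formulated in acetone/dimethylformamide with alkylaryl polyglycol ether emulsifier, diluted in emulsifier-containing water to the desired concentration. After drying, discs were populated with mustard beetle larvae.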

[4] = tested on: Boophilus microplus; experiment: Boophilus microplus test (BOOPMI injection); assay type: in vivo; details: 20 μg/animal, injection into the abdomen, after 7 days
How it was run: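 Ticks injected in the abdomen with compound in DMSO, then held in a climatized room. Effect scored after 7 days as % reduction in fertile egg laying, 100% meaning no fertile eggs.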

[5] = tested on: cat fleas (Ctenocephalides felis, fully sensitive laboratory strain); experiment: Contact test against fleas in-vitro (CTECFE contact); assay type: in vivo; details: 500 g/ha, after 48 h
How it was run: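 Test tubes coated from acetone solutions by rotation, top concentration 500 g/ha (500 μg/dm^2) on tube surface, serial 1:5 dilutions. 10-20 CO2-anesthetized adult fleas held at room temperature for 24 and 48 h. Activity scored versus acetone control: knock-down or death of all fleas = 100%.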

[6] = tested on: Musca domestica; experiment: Musca domestica test (MUSCDO); assay type: in vivo; details: 100 ppm, after 2 days
Description: Musca domestica Test (MUSCDO)
as §1
To produce a suitable preparation of active compound, 10 mg of active compound are mixed with 0.5 ml of dimethyl sulphoxide and the concentrate is diluted with water to the desired concentration. Vessels containing a sponge treated with the active compound preparation of the desired concentration are populated with adult Musca domestica.
After 2 days, the kill in % is determined 100% means that all flies have been killed; 0% means that none of the flies have been killed.

[7] = tested on: caterpillars of the army worm (Spodoptera frugiperda); experiment: Spodoptera frugiperda test (SPODFR spray treatment); assay type: in vivo; details: 500 g/ha, spray, after 7 days
How it was run: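 Maize leaf discs sprayed with compound formulated in acetone/dimethylformamide plus alkylaryl polyglycol ether emulsifier and diluted in water, then infested with Spodoptera frugiperda caterpillars once dry. Mortality scored after 7 days as % activity, where 100% means all caterpillars killed.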

[8] = tested on: Ctenocephalides felis; experiment: Ctenocephalides felis oral test (CTECFE); assay type: in vivo; details: 100 ppm in citrated cattle blood, after two days
How it was run: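 About 20 unfed adult C. felis fed through a parafilm membrane on citrated cattle blood containing compound (DMSO stock diluted to the desired concentration). Kill (%) determined after two days; 100% = all fleas dead, 0% = none dead.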

[9] = tested on: greenhouse red spider mite (Tetranychus urticae); experiment: Tetranychus test; OP-resistant (TETRUR spray treatment); assay type: in vivo; details: 500 g/ha, spray, after 6 days
How it was run: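 Bean leaf discs infested with all stages of OP-resistant Tetranychus urticae were sprayed with compound in acetone/DMF with alkylaryl polyglycol ether emulsifier, diluted in emulsifier-water. Mortality was scored after 6 days: 100% means all mites killed, 0% none.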

[10] = tested on: Aedes aegypti; experiment: Aedes test (AEDSAE surface treatment); assay type: in vivo; details: 100 mg/m^2, two hours after contact, exposition 30 minutes
How it was run: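 Compound dissolved in acetone (2 mg/ml) and dried onto a glazed tile; adult mosquitoes exposed for 30 minutes. Knock-down % scored at 2 hours and mortality % at 24 hours after contact (100% = all killed).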

[11] = tested on: Anopheles gambiae (homocygus kdr); experiment: Anopheles test (ANPHGB surface treatment); assay type: in vivo; details: 100 mg/m^2, two hours after contact, exposition 30 minutes
How it was run: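 Compound dissolved in acetone at 2 mg/ml, pipetted onto glazed tile and dried; adult kdr-homozygous mosquitoes exposed on the tile for 30 min. Knock-down (%) read 2 h and mortality (%) 24 h after contact.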

[12] = tested on: Culex quinquefasciatus; experiment: whole plant or invertebrate; assay type: in vivo; details: 100 mg/m^2, two hours after contact, exposition 30 minutes
Description: Culex Test (CULXFA Surface Treatment) Solvent: Acetone
To produce a suitable preparation of active compound, the active compound is dissolved in acetone (2 mg/ml). The active compound preparation is pipetted onto a glazed tile and, after drying, adult mosquitoes of the species Culex quinquefasciatus are placed onto the treated tile. The exposition time is 30 minutes.
Two hours after contact to the treated surface, the knock-down proportion of the test animals in % is determined.
24 hours after contact to the treated surface, the mortality in % is determined. Here, 100% means that all mosquitoes have been killed; 0% means that none of the mosquitoes has been killed.

[13] = logP determination by HPLC on reversed-phase columns (C18), LC-MS neutral; assay type: physicochemical; details: pH 7.8, HPLC on C18, calibration with alkan-2-ones
[14] = tested on: Boophilus microplus strain Parkhurst, SP-resistant; experiment: Boophilus microplus test (DIP); assay type: in vivo; details: 100 ppm, after 7 days
Description: Boophilus microplus Test (DIP) Test Animals: Adult Fat Females of the Boophilus microplus Strain Parkhurst—SP-Resistant) Solvent: Dimethyl Sulphoxide
10 mg of active compound are dissolved in 0.5 ml of dimethyl sulphoxide. To produce a suitable formulation, the active compound solution is diluted with water to the particular desired concentration.
This active compound preparation is pipetted into tubes. 8-10 ticks are transferred into a further tube provided with holes. The tube is dipped into the active compound preparation, with all the ticks being wetted completely. After the liquid has run off, the ticks are transferred to filter discs in plastic dishes and kept in a climatized room. After 7 days, the activity is checked for deposition of fertile eggs. Eggs whose fertility is not visible from the outside are kept in glass tubes in a climatized cupboard until the larvae have hatched. An activity of 100% means that no tick has laid fertile eggs.

SMILES	activity (kill in %) [1]	activity (aphids killed) [2]	activity (beetle larvae killed) [3]	activity (100% = none of the ticks has laid any fertile eggs) [4]	activity against cat fleas [5]	activity (kill in %) [6]	activity (caterpillars killed) [7]	activity (kill in %) [8]	activity (spider mites killed) [9]	knock-down activity [10]	knock-down activity [11]	knock-down activity [12]	logP [13]	activity (100% = no tick has laid fertile eggs) [14]
CCC1C(=CSc2ccc(F)cc2)C(=Nc2ccc(C)cc2)c2ccccc21 (mixture of isomers) [Example 1-37]	100%	100%	100%	100%	100%	90%	100%	100%	100%	–	–	–	–	–
Cc1ccc(N=C2C(=CSc3ccc(F)cc3)COc3ccccc32)cc1 [Example 1-36]	100%	100%	100%	100%	100%	–	100%	90%	100%	100%	100%	100%	–	–
CC1C(=CSc2ccccc2)C(=Nc2ccc(Cl)cc2)c2ccccc21 (centres unmarked) [Example 1-11]	–	–	–	–	–	–	–	–	–	–	–	–	LC-MS (neutral)*: logP = 6.38, (M + H)^+ = 376	–
Cc1ccc(N=C2C(=CSc3ccc(F)cc3)CCCC2=Cc2ccccc2)cc1 [Example 1-56]	–	–	–	–	–	–	–	–	–	–	–	–	LC-MS (neutral)*: logP = 7.01, (M + H)^+ = 414.	–
Cc1ccc(N=C2C(=CSc3ccc(F)cc3)CCc3cc(C)ccc32)cc1 [Example 1-46]	–	100%	100%	–	100%	–	100%	–	100%	100%	100%	100%	–	–
Cc1ccc(N=C2C(=CSc3ccc(F)cc3)CCc3cc(F)cc(F)c32)cc1 (mixture of isomers) [Example 1-33]	100%	80%	100%	100%	100%	80%	100%	95%	–	–	–	–	–	100%
Cc1ccc(N=C2C(=CSc3ccccc3)C(C)c3ccccc32)cc1 (mixture of isomers) [Example 1-5]	100%	100%	100%	100%	100%	100%	100%	100%	100%	–	100%	–	–	100%
Cc1ccc(N=C2C(=CSc3ccc(F)cc3)CCc3occc32)cc1 [Example 1-29]	100%	100%	100%	–	100%	100%	100%	80%	100%	90%	–	–	–	100%
Cc1ccc(N=C2C(=CSc3ccc(F)cc3)COc3cc(F)ccc32)cc1 [Example 1-58]	–	100%	100%	–	100%	–	100%	–	100%	100%	100%	100%	–	–
Cc1ccc(N=C2C(=CSc3ccc(F)cc3)C(C)c3cccc(F)c32)cc1 (mixture of isomers) [Example 1-27]	100%	100%	100%	100%	100%	100%	100%	100%	100%	100%	100%	–	–	100%
Cc1ccc(N=C2C(=CSc3ccc(F)cc3)CCc3sccc32)cc1 (mixture of isomers) [Example 1-26]	100%	100%	100%	100%	100%	100%	100%	95%	100%	–	–	–	–	100%
CC(=O)Nc1ccc2c(c1)CCC(=CSc1ccc(F)cc1)C2=Nc1ccc(C)cc1 [Example 1-48]	–	–	–	–	–	–	–	–	–	–	–	–	LC-MS (neutral)*: logP = 4.64, (M + H)^+ = 431.	–
Cc1ccc(N=C2CCCCCC2=CSc2ccccc2)cc1 [Example 1-38]	–	–	–	–	100%	–	–	–	–	100%	100%	–	LC-MS (neutral)*: logP = 6.20, (M + H)^+ = 322	–
